Structures are written as SMILES.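 Values below derive from 48-hour exposures of cells grown in 96-well plates, with endpoints linearly interpolated between the two concentrations bracketing the appropriate inhibition level. TGI marks complete inhibition of growth.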

The first assay has as its system ACHN renal. As to the kind of experiment: NCI tumour cell line growth inhibition, 48 h.
In the case of `Cc1ccc2c(c1C)CC1(Cc3c(C)ccc(C)c3C1=O)C2=O` (stereo not given), the TGI was > 100 µM.

As for `O=CN1CCN(C(=O)c2ccco2)C1=S`, the TGI is 24 µM.

`CC(=O)C1(O)CCC2(O)C3(O)CC=C4CC(O)CCC4(C)C3CC(OC(=O)c3ccc(O)cc3)C12C` (stereo not given): the TGI was > 100 µM.

With `Clc1ccc(OCc2nnc(COc3ccc(OCc4nnc(COc5ccc(Cl)cc5Cl)o4)c(Cl)c3)o2)c(Cl)c1`, the TGI was > 100 µM.

The compound `O=C1/C(=C/c2ccncc2)C(n2cccc2)c2c(Br)sc(Br)c21` (stereo not given) showed a TGI of 17.1 µM.

For `C=C1CC(COc2ccc3c(C)c(C)c(=O)oc3c2C)(c2ccccc2)OC1=O` (stereo not given), the TGI worked out at 7.51 µM.

For the compound `CC(=O)OCC(=O)O[C@@H]1[C@H]2[C@@H](OC(=O)c3ccccc3)[C@@H](C)C[C@]2(O)[C@H](OC(C)=O)[C@@]2(C)C[C@]1(OC(C)=O)C[C@H]1C(=O)C(C)(C)[C@@H](OC(C)=O)[C@@H]12`, the TGI was > 25 µM.

`O=C(Sc1c(-c2ccccc2)c(=O)n(-c2ccccc2)c(=S)n1-c1ccccc1)c1ccco1`: the TGI was > 100 µM.

For the compound `Cn1nc2c(c1N)Cc1c(nn(C)c1N)-c1ccccc1-2`, the TGI is > 100 µM.

As to `O=c1ccn(-c2ccccn2)c(=O)n1-c1ccccn1`, the TGI is > 100 µM.

With `O=C1NC(=S)NC(=O)C1C(c1ccc(Cl)cc1)C1C(=O)NC(=S)NC1=O`, the TGI is > 100 µM.

As for `COC(=O)C1=C(C(=O)OC)SC(=C2SC3=C(SC(=C4SCCS4)S3)S2)S1`, the TGI is > 100 µM.

As to `CCC(=O)Nc1ccc(NS(=O)(=O)c2ccc(Cl)cc2)cc1`, the TGI was > 100 µM.

The compound `COc1cccc(N2C(=O)CS(=O)(=O)C2c2cccc(Oc3ccccc3)c2)c1` (stereo not given) came in with a TGI of 60.2 µM.

As to `O=C(/C=C\Nc1ccccc1O)C(F)(F)F`, the TGI was > 100 µM.

`CC1(C)OC[C@@H](C[C@H](O)COCc2ccccc2)O1`: the TGI is > 100 µM.

In the case of `NC(N)=NS(=O)(=O)c1ccc(NC(=O)c2cccc3c(NNc4ccc(S(N)(=O)=O)cc4)c4ccccc4nc23)cc1`, the TGI is > 100 µM.

`CC(=O)N(C)c1ccc(Nc2ccnc3ccc4nn(C)nc4c23)cc1` gave a TGI of 30.2 µM.

For `Nc1nncc2[nH]cnc12`, the TGI was > 100 µM.

`S=c1[nH]nc(Cn2c3ccc(Br)cc3c3nc4ccccc4nc32)n1C1CCCCC1`: the TGI was determined as 98.9 µM.

In the case of `COc1ccc2c(c1)-c1c(c3cc(OC)ccc3n1CCN(C)C)CC2`, the TGI is 28.4 µM.

Compound `COc1ccc(C2=C(Cl)C(=O)O/C2=C\c2ccc(OC)c(Br)c2)cc1Cl` registered a TGI of 40.2 µM.

`CNC(=S)NNc1ncnc2c1c(-c1ccc(Cl)cc1)cn2-c1ccc(C)cc1`: the TGI was determined as 22.8 µM.

In the case of `CCCCCCCCCCCCNC(=O)CCC(NC(=O)c1ccc(N(C)Cc2cnc3nc(N)nc(N)c3n2)cc1)C(=O)NCCCCCCCCCCCC` (stereo not given), the TGI is > 100 µM.

As to `Clc1cc(C(c2cc(Cl)sc2Cl)c2cc(Cl)sc2Cl)c(Cl)s1`, the TGI was > 100 µM.

As to `COc1cc(OC)cc(Oc2nc3cc(F)c(F)cc3nc2-c2ccccc2)c1`, the TGI was > 100 µM.

On to `Cc1cc(S(=O)(=O)Nc2n[nH]c(Nc3ccccc3)n2)c(SCC(=O)O)cc1Cl`, for which the TGI was > 100 µM.

For `NCCN(CCN(C(=O)Nc1ccccc1)c1ccccc1)C(=O)Nc1ccccc1`, the TGI came to 59.9 µM.

`C[C@H](c1ccccc1)N1C(=O)[C@@H](OCc2ccccc2)[C@H]1[C@H](COC(=O)COCc1ccccc1)OCc1ccccc1`: the TGI was > 100 µM.

The subject of a further assay is CCRF-CEM leukemia. As to the kind of experiment: NCI tumour cell line growth inhibition, 48 h.
On to `Cc1ccc2c(c1C)CC1(Cc3c(C)ccc(C)c3C1=O)C2=O` (stereo not given), for which the TGI is > 100 µM.

Take `O=CN1CCN(C(=O)c2ccco2)C1=S`: the TGI was > 37.1 µM.

Regarding `CC(=O)C1(O)CCC2(O)C3(O)CC=C4CC(O)CCC4(C)C3CC(OC(=O)c3ccc(O)cc3)C12C` (stereo not given), the TGI was > 100 µM.

The compound `Clc1ccc(OCc2nnc(COc3ccc(OCc4nnc(COc5ccc(Cl)cc5Cl)o4)c(Cl)c3)o2)c(Cl)c1` displayed a TGI of 38.5 µM.

Take `O=C1/C(=C/c2ccncc2)C(n2cccc2)c2c(Br)sc(Br)c21` (stereo not given): the TGI came to 4.99 µM.

`C=C1CC(COc2ccc3c(C)c(C)c(=O)oc3c2C)(c2ccccc2)OC1=O` (stereo not given): the TGI was determined as 1.55 µM.

With `CC(=O)OCC(=O)O[C@@H]1[C@H]2[C@@H](OC(=O)c3ccccc3)[C@@H](C)C[C@]2(O)[C@H](OC(C)=O)[C@@]2(C)C[C@]1(OC(C)=O)C[C@H]1C(=O)C(C)(C)[C@@H](OC(C)=O)[C@@H]12`, the TGI was > 25 µM.

As for `O=C(Sc1c(-c2ccccc2)c(=O)n(-c2ccccc2)c(=S)n1-c1ccccc1)c1ccco1`, the TGI amounted to 69.3 µM.

Turning to `Cn1nc2c(c1N)Cc1c(nn(C)c1N)-c1ccccc1-2`, the TGI was > 100 µM.

For `O=c1ccn(-c2ccccn2)c(=O)n1-c1ccccn1`, the TGI was > 100 µM.

Consider `O=C1NC(=S)NC(=O)C1C(c1ccc(Cl)cc1)C1C(=O)NC(=S)NC1=O`, for which the TGI is > 100 µM.

Take `COC(=O)C1=C(C(=O)OC)SC(=C2SC3=C(SC(=C4SCCS4)S3)S2)S1`: the TGI was > 100 µM.

With `CCC(=O)Nc1ccc(NS(=O)(=O)c2ccc(Cl)cc2)cc1`, the TGI is > 100 µM.

Take `COc1cccc(N2C(=O)CS(=O)(=O)C2c2cccc(Oc3ccccc3)c2)c1` (stereo not given): the TGI was > 100 µM.

For `O=C(/C=C\Nc1ccccc1O)C(F)(F)F`, the TGI is > 100 µM.

As to `CC1(C)OC[C@@H](C[C@H](O)COCc2ccccc2)O1`, the TGI was > 100 µM.

On to `NC(N)=NS(=O)(=O)c1ccc(NC(=O)c2cccc3c(NNc4ccc(S(N)(=O)=O)cc4)c4ccccc4nc23)cc1`, for which the TGI was > 100 µM.

On to `CC(=O)N(C)c1ccc(Nc2ccnc3ccc4nn(C)nc4c23)cc1`, for which the TGI was 42 µM.

Turning to `Nc1nncc2[nH]cnc12`, the TGI was determined as 20.7 µM.

Compound `S=c1[nH]nc(Cn2c3ccc(Br)cc3c3nc4ccccc4nc32)n1C1CCCCC1` came in with a TGI of 84.1 µM.

With `COc1ccc2c(c1)-c1c(c3cc(OC)ccc3n1CCN(C)C)CC2`, the TGI is 26.4 µM.

`COc1ccc(C2=C(Cl)C(=O)O/C2=C\c2ccc(OC)c(Br)c2)cc1Cl` yielded a TGI of 79.2 µM.

On to `CNC(=S)NNc1ncnc2c1c(-c1ccc(Cl)cc1)cn2-c1ccc(C)cc1`, for which the TGI is > 100 µM.

For `CCCCCCCCCCCCNC(=O)CCC(NC(=O)c1ccc(N(C)Cc2cnc3nc(N)nc(N)c3n2)cc1)C(=O)NCCCCCCCCCCCC` (stereo not given), the TGI was determined as 66.7 µM.

On to `Clc1cc(C(c2cc(Cl)sc2Cl)c2cc(Cl)sc2Cl)c(Cl)s1`, for which the TGI is > 100 µM.

With `COc1cc(OC)cc(Oc2nc3cc(F)c(F)cc3nc2-c2ccccc2)c1`, the TGI is > 100 µM.

In the case of `Cc1cc(S(=O)(=O)Nc2n[nH]c(Nc3ccccc3)n2)c(SCC(=O)O)cc1Cl`, the TGI was > 100 µM.

On to `NCCN(CCN(C(=O)Nc1ccccc1)c1ccccc1)C(=O)Nc1ccccc1`, for which the TGI was > 100 µM.

For the compound `C[C@H](c1ccccc1)N1C(=O)[C@@H](OCc2ccccc2)[C@H]1[C@H](COC(=O)COCc1ccccc1)OCc1ccccc1`, the TGI was > 100 µM.

In another assay the test system is COLO 205 colon. As to the kind of experiment: NCI tumour cell line growth inhibition, 48 h.
On to `Cc1ccc2c(c1C)CC1(Cc3c(C)ccc(C)c3C1=O)C2=O` (stereo not given), for which the TGI is > 100 µM.

As for `O=CN1CCN(C(=O)c2ccco2)C1=S`, the TGI is 24.4 µM.

For the compound `CC(=O)C1(O)CCC2(O)C3(O)CC=C4CC(O)CCC4(C)C3CC(OC(=O)c3ccc(O)cc3)C12C` (stereo not given), the TGI was > 100 µM.

For the compound `Clc1ccc(OCc2nnc(COc3ccc(OCc4nnc(COc5ccc(Cl)cc5Cl)o4)c(Cl)c3)o2)c(Cl)c1`, the TGI came to 74.9 µM.

Compound `O=C1/C(=C/c2ccncc2)C(n2cccc2)c2c(Br)sc(Br)c21` (stereo not given) gave a TGI of 28.6 µM.

The compound `C=C1CC(COc2ccc3c(C)c(C)c(=O)oc3c2C)(c2ccccc2)OC1=O` (stereo not given) showed a TGI of 3.24 µM.

For the compound `CC(=O)OCC(=O)O[C@@H]1[C@H]2[C@@H](OC(=O)c3ccccc3)[C@@H](C)C[C@]2(O)[C@H](OC(C)=O)[C@@]2(C)C[C@]1(OC(C)=O)C[C@H]1C(=O)C(C)(C)[C@@H](OC(C)=O)[C@@H]12`, the TGI was > 25 µM.
